# Measurements as given in patent US8455495B2, “Pyridazino-pyridinone compounds and methods of use” (Amgen Inc., priority 2008, dated 2013).
# Where two headings read alike, the source gives them in different places.
# Experiments:
# [1] = tested on: TNF-α production by LPS-activated THP1 cells; assay: Lipopolysaccharide-activated THP1 cell TNF production assay; type: cell-based; conditions: Homo sapiens, read-out: IC50 in THP-1 cellular TNF production assay
# Method: Lipopolysaccharide-Activated THP1 Cell TNF Production Assay
# THP1 cells were resuspended in fresh THP1 media (RPMI 1640, 10% heat-inactivated FBS, 1×PGS, 1×NEAA, plus 30 μM βME) at a concentration of 1.5×10^6 cells per mL. One hundred microliters of cells per well were plated in a polystyrene 96-well tissue culture plate. 1.5 micrograms per mL of bacterial LPS was prepared in THP1 media and transferred to the first 11 columns of a 96-well polypropylene plate. Column 12 contained only THP1 media for the LO control. Compounds were dissolved in 100% DMSO and serially diluted 3 fold in a polypropylene 96-well microtiter plate (drug plate). Columns 6 and 12 were reserved as controls (HI controls and LO controls respectively) and contained only DMSO. 10 μL of LPS followed by one microliter of inhibitor compound from the drug plate was transferred to the cell plate. The treated cells were induced to synthesize and secrete TNF-α in a 37° C. humidified incubator with 5% CO2 for 3 hours. Fifty microliters of conditioned media was transferred to a 96-well MULTI-ARRAY™ 96-well small spot plate—custom coated with MAB610 containing 100 μL of 2× Read Buffer P supplemented with 0.34 nM AF210NA polyclonal Ab labeled with ruthenium (MSD—Sulfo-TAG™—NHS ester). After an overnight incubation at room temperature with shaking, the reaction was read on the Sector Imager™ 6000. […] The amount of secreted TNF-α in the presence of test compounds compared with that in the presence of DMSO vehicle alone (HI control) was calculated using the formula: % control (POC)=(cpd−average LO)/(average HI−averageLO)*100. Data (consisting of POC and inhibitor concentration in μM) was fitted to a 4-parameter equation (y=A+((B−A)/(1+((x/C)^D))), where A is the minimum y (POC) value, B is the maximum y (POC), C is the x (cpd concentration) at the point of inflection and D is the slope factor) using a Levenburg-Marquardt non-linear regression algorithm.
# [2] = tested on: production of IL-1β, IL-6, and TNF-α by PBMC activated with LPS; assay: Lipopolysaccharide-activated PBMC cytokine production assay; type: cell-based; conditions: Homo sapiens, read-out: IC50 in PBMC cytokine production assay
# Method: Lipopolysaccharide-Activated Pbmc Cytokine Production Assay
# Test compounds were evaluated in vitro for the ability to inhibit the production of IL-1β, IL-6, and TNF-α by PBMC activated with bacterial lipopolysaccharide (LPS). Fresh leukocytes were obtained from a local blood bank, and peripheral blood mononuclear cells (PBMCs) were isolated by density gradient centrifugation on Ficol-Paque Plus (Pharmacia).
# Preparation of Test Compound Stock Solutions
# All reagents were prepared in RPMI 1640+10% v/v human AB serum+1× Pens/Strep/Glu (assay medium). Test compounds were dissolved in 100% DMSO and serially diluted in 96-well polypropylene round bottom micro titer plates (drug plate). Serial dilutions were then diluted 1:250 into assay medium to a 4× working concentration. Compound serial dilutions were half-log, 10 point titrations with a final starting concentration of 1 μM.
# Treatment of Cells with Test Compounds and Activation with Lipopolysaccharide
# LPS was prepared to a 4× concentration in assay medium. 100 μl of PBMC (1×10^6 cells/ml) were plated in a 96-well polystyrene flat bottom micro titer tissue culture plate and incubated with 50 μl of 4× compound serial dilution for 1 hour at 37° C., 5% CO2 in a tissue culture incubator. 50 μl 4×LPS or control was added and the plates were incubated at 37° C., 5% CO2 in a tissue culture incubator for 18 hours. The final DMSO concentration was 0.1%. The total volume was 200 μL. The final LPS concentration was 100 ng/mL. After 18 hours culture supernatants were removed and IL-1β, IL-6, and TNF-α presence in the supernatants was quantified using MSD ECL based technology.
# 20 μL of culture supernatant were added to MSD plates, and incubated for one hour at room temperature. 20 μL of detection antibody diluted in antibody diluent (1 μg/mL), and 110 μL of 2× Read Buffer P was added, and incubated for one hour at RT. Electrochemiluminescence was measured using the SECTOR HTS Imager (MSD, Gaithersburg, Md.).
# Compound IC50 values were calculated as follows: The proportion of cytokine production in the presence of compound compared to the cytokine production in the presence of the DMSO vehicle alone (Hi control) was calculated using the formula: Percent Control (POC)=(compound−average Lo)/(average Hi−average Lo)*100.
# recombinant human p38α = recombinant human p38α (Homo sapiens, UniProt Q16539); assay: Purified and activated recombinant human p38α HTRF assay; type: biochemical; conditions: 1 nM p38α, 50 μM ATP, GST-ATF2 substrate, read-out: p38a IC50
# Sequence of recombinant human p38α (Q16539 whole entry): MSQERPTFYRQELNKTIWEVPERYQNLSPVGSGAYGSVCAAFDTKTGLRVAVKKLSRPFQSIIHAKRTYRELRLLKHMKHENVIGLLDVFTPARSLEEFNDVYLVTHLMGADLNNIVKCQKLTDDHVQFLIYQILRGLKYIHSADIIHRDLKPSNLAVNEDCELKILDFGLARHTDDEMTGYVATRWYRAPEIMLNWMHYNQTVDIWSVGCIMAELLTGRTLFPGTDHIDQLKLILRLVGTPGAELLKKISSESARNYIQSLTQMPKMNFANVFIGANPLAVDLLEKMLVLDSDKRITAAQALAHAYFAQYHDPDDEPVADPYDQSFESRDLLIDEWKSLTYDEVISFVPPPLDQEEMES
# Method: Purified and Activated Recombinant Human p38α Assay Kinase Reaction Buffer: […] HTRF Detection Buffer: […] Serial Dilution of Compounds: […] Columns 6 and 12 (HI controls and LO controls respectively) in the drug plate were reserved as controls and contained only DMSO. Kinase Reaction: […] See table below for actual concentrations. In the absence of substrate, the background was measured as LO control. […] Assay Reagent Concentrations: […] HTRF Detection: […] After 60 minutes incubation at room temperature, the assay plate was read in a Discovery Plate Reader. The wells were excited with coherent 320 nm light and the ratio of delayed ([…] post excitation) emissions at […] (native europium fluorescence) and 665 nm (europium fluorescence transferred to allophycocyanin-an index of substrate phosphorylation) was determined (Park et al, 1999). Data Analysis: […] Data (consisting of POC and inhibitor concentration in μM) was fitted to a 4-parameter equation ([…]))), where A is the minimum y (POC) value, B is the maximum y (POC), C is the x (compound concentration) at the point of inflection and D is the slope factor, using a Levenburg-Marquardt non-linear regression algorithm. The inhibition constant (Ki) of the inhibitor was estimated from the IC50 (compound concentration at the point of inflection C) using the Cheng-Prussof equation: […] All results were expressed as the mean±the standard error of the mean. Data acquisition and non-linear regression algorithms were performed using Activity Base v5.2 and XL-fit software v4.1 respectively. All data was archived using Activity Base v5.2 software.
# [3] = THP-1, THP1 cells, LPS, 3 hours
IC50 (recombinant human p38α) [nM],"IC50 [1, 3] [nM]",Structure (SMILES),"IC50 ([1]; THP-1, 3 h) [nM]",IC50 ([2]; 18 h) [nM],"IC50 ([2]; LPS 100 ng/mL, 18 hours) [nM]"
1.5,≤ 1000,"CCn1c(=O)c(-c2cc(C(=O)NC3CC3)ccc2C)cc2cnnc(-c3ccc(F)cc3F)c21 [Example 23, N-cyclopropyl-3-(8-(2,4-difluorophenyl)-1-ethyl-2-oxo-1,2-dihydropyrido[2,3-d]pyridazin-3-yl)-4-methylbenzamide]",,,≤ 1000
2,≤ 1000,"Cc1ccc(C(=O)NC2CC2)cc1-c1cc2cnnc(-c3ccc(C(F)(F)F)cc3F)c2n(C)c1=O [Example 9, N-cyclopropyl-3-(8-(2-fluoro-4-(trifluoromethyl)phenyl)-1-methyl-2-oxo-1,2-dihydropyrido[3,2-d]pyridazin-3-yl)-4-methylbenzamide]",,,≤ 1000
1.3,≤ 1000,"CCn1c(=O)c(-c2cc(C(=O)NC3CC3)cc(F)c2C)cc2cnnc(-c3ccc(F)cc3F)c21 [Example 22, N-cyclopropyl-3-(8-(2,4-difluorophenyl)-1-ethyl-2-oxo-1,2-dihydropyrido[2,3-d]pyridazin-3-yl)-5-fluoro-4-methylbenzamide]",,,≤ 1000
2.9,≤ 1000,"Cc1ccc(C(=O)NC2CC2)cc1-c1cc2cnnc(-c3ccccc3C(F)(F)F)c2n(C)c1=O [Example 10, N-cyclopropyl-4-methyl-3-(1-methyl-2-oxo-8-(2-(trifluoromethyl)phenyl)-1,2-dihydropyrido[3,2-d]pyridazin-3-yl)benzamide]",,,≤ 1000
2.4,≤ 1000,"Cc1c(F)cc(C(=O)NC2CC2)cc1-c1cc2cnnc(-c3ccccc3C(F)(F)F)c2n(C)c1=O [Example 11, N-cyclopropyl-3-fluoro-4-methyl-5-(1-methyl-2-oxo-8-(2-(trifluoromethyl)phenyl)-1,2-dihydropyrido[3,2-d]pyridazin-3-yl)benzamide]",,,≤ 1000
1.6,≤ 1000,"Cc1c(F)cc(C(=O)NC2CC2)cc1-c1cc2cnnc(-c3cc(F)ccc3Cl)c2n(C)c1=O [Example 19, 3-(8-(2-chloro-5-fluorophenyl)-1-methyl-2-oxo-1,2-dihydropyrido[2,3-d]pyridazin-3-yl)-N-cyclopropyl-5-fluoro-4-methylbenzamide]",,,≤ 1000
2.8,≤ 1000,"Cc1ccc(C(=O)NC2CC2)cc1-c1cc2cnnc(-c3ccc(F)cc3Cl)c2n(C)c1=O [Example 13, N-cyclopropyl-3-(8-(2-chloro-4-fluorophenyl)-1-methyl-2-oxo-1,2-dihydropyrido[3,2-d]pyridazin-3-yl)-4-methylbenzamide]",,,≤ 1000
3,≤ 1000,"Cc1cc(F)ccc1-c1nncc2cc(-c3cc(C(=O)NC4CC4)cc(F)c3C)c(=O)n(C)c12 [Example 16, N-cyclopropyl-3-fluoro-5-(8-(4-fluoro-2-methylphenyl)-1-methyl-2-oxo-1,2-dihydropyrido[2,3-d]pyridazin-3-yl)-4-methylbenzamide]",,,≤ 1000
0.9,≤ 1000,"Cc1ccc(C(=O)Nc2ccon2)cc1-c1cc2cnnc(-c3ccccc3Cl)c2n(C)c1=O [Example 25, 3-(8-(2-chlorophenyl)-1-methyl-2-oxo-1,2-dihydropyrido[2,3-d]pyridazin-3-yl)-N-3-isoxazolyl-4-methylbenzamide]",,,≤ 1000
3,≤ 1000,"Cc1ccc(C(=O)NC2(C)CC2)cc1-c1cc2cnnc(-c3ccc(F)cc3F)c2n(C)c1=O [Example 29, 3-(8-(2,4-difluorophenyl)-1-methyl-2-oxo-1,2-dihydropyrido[2,3-d]pyridazin-3-yl)-4-methyl-N-(1-methylcyclopropyl)benzamide]",,,≤ 1000
0.8,≤ 1000,"Cc1ccc(C(=O)Nc2ccon2)cc1-c1cc2cnnc(-c3ccc(F)cc3Cl)c2n(C)c1=O [Example 21, 3-(8-(2-chloro-4-fluorophenyl)-1-methyl-2-oxo-1,2-dihydropyrido[2,3-d]pyridazin-3-yl)-N-3-isoxazolyl-4-methylbenzamide]",,,≤ 1000
2.5,≤ 1000,"Cc1ccc(C(=O)NC2CC2)cc1-c1cc2cnnc(-c3ccc(F)cc3C)c2n(C)c1=O [Example 12, N-cyclopropyl-3-(8-(4-fluoro-2-methylphenyl)-1-methyl-2-oxo-1,2-dihydropyrido[3,2-d]pyridazin-3-yl)-4-methylbenzamide]",,,≤ 1000

Structure (SMILES),IC50 (recombinant human p38α) [nM],"IC50 [1, 3] [nM]","IC50 ([1]; THP-1, 3 h) [nM]",IC50 ([2]; 18 h) [nM],"IC50 ([2]; LPS 100 ng/mL, 18 hours) [nM]"
"Cn1c(=O)c(-c2cc(C(=O)NC3CC3)ccc2Cl)cc2cnnc(-c3ccc(F)cc3F)c21 [Example 5, 4-chloro-N-cyclopropyl-3-(8-(2,4-difluorophenyl)-1-methyl-2-oxo-1,2-dihydropyrido[3,2-d]pyridazin-3-yl)benzamide]",1.6,,≤ 1000,≤ 1000,
"Cc1ccccc1-c1nncc2cc(-c3cc(C(=O)NC4CC4)cc(F)c3C)c(=O)n(C)c12 [Example 7, N-cyclopropyl-3-fluoro-4-methyl-5-(1-methyl-2-oxo-8-o-tolyl-1,2-dihydropyrido[3,2-d]pyridazin-3-yl)benzamide]",1.5,,≤ 1000,≤ 1000,
"Cc1ccc(C(=O)NC2CC2)cc1-c1cc2cnnc(-c3ccccc3C)c2n(C)c1=O [Example 6, N-cyclopropyl-4-methyl-3-(1-methyl-2-oxo-8-o-tolyl-1,2-dihydropyrido[3,2-d]pyridazin-3-yl)benzamide]",11.4,,≤ 1000,≤ 1000,
"Cc1ccc(C(=O)NC2CC2)cc1-c1cc2cnnc(-c3ccccc3Cl)c2n(C)c1=O [Example 8, 3-(8-(2-chlorophenyl)-1-methyl-2-oxo-1,2-dihydropyrido[3,2-d]pyridazin-3-yl)-N-cyclopropyl-4-methylbenzamide]",1.6,,≤ 1000,≤ 1000,
